pIC50: −log10 of the molar value. Counter-ions that a name gives are not always drawn.

One experiment has as its target T1, IRAK4 (Homo sapiens, UniProt Q9NWZ3).
T1 sequence (Q9NWZ3 1-460): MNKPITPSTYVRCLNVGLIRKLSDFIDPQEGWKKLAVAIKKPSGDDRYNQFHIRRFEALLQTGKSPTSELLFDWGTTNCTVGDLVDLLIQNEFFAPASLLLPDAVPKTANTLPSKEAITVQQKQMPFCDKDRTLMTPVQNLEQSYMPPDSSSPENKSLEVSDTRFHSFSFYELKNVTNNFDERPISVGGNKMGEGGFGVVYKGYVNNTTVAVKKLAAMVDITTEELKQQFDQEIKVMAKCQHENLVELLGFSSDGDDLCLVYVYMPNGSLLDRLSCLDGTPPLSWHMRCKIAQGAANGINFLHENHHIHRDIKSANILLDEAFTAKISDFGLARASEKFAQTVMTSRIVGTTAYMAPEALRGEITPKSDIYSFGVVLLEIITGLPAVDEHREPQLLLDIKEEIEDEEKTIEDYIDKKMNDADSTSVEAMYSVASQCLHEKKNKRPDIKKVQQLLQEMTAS
Briefly: biochemical.
Conditions: not given
In general, pIC50 refers to −log10 of the IC50, conventionally taken in molar units. High values mean a low IC50, low ones a high IC50. Take `CCn1ccc(NC(=O)c2cn3cc(C45COC(C)(C4)C5)nc3cc2OC2CCC2)n1` [Example 528, 7-Cyclobutoxy-N-(1-ethyl-1H-pyrazol-3-yl)-2-(1-methyl-2-oxabicyclo[2.1.1]hexan-4-yl)imidazo[1,2-a]pyridine-6-carboxamide]: the negative logarithm of the IC50 (pIC50) was 8.28. On to `CC(C)Oc1nc(C(=O)Nc2cccc(C(F)F)n2)cn2cc([C@@]34CC[C@@](C)(C3)OC4)nc12` (single isomer, unassigned) [Example 588], for which the pIC50 is 8.82. For `COc1cc2nc(C3CCOCC3)cn2cc1C(=O)Nc1ccn(CCF)n1` [Example 190], the pIC50 is 6.96. With `CC(C)Oc1cc2nc(C34CCC(C)(C3)OC4)cn2cc1C(=O)Nc1nccs1` (stereo not drawn) [Example 512, 7-Isopropoxy-2-(1-methyl-2-oxabicyclo[2.2.1]heptan-4-yl)-N-(thiazol-2-yl)imidazo[1,2-a]pyridine-6-carboxamide], the pIC50 is 8.05. Regarding `CCOc1nc(C(=O)Nc2ccn(C(F)F)n2)cn2cc(C34COC(C)(C3)C4)nc12` [Example 490, N-(1-(difluoromethyl)-1H-pyrazol-3-yl)-8-ethoxy-2-(1-methyl-2-oxabicyclo[2.1.1]hexan-4-yl)imidazo[1,2-a]pyrazine-6-carboxamide], the pIC50 was 8.19. `CC12CC(c3cn4cc(C(=O)Nc5cccn(C(F)F)c5=O)c(OC5CCOC5)cc4n3)(CO1)C2` (stereo not drawn) [Example 443, N-(1-(difluoromethyl)-2-oxo-1,2-dihydropyridin-3-yl)-2-(1-methyl-2-oxabicyclo[2.1.1]hexan-4-yl)-7-((tetrahydrofuran-3-yl)oxy)imidazo[1,2-a]pyridine-6-carboxamide] gave a negative logarithm of the IC50 (pIC50) of 8.77.

The compound `CCOc1nc(C(=O)Nc2cccc(C)c2F)cn2cc(C34COC(C)(C3)C4)nc12` [Example 496, 8-Ethoxy-N-(2-fluoro-3-methylphenyl)-2-(1-methyl-2-oxabicyclo[2.1.1]hexan-4-yl)imidazo[1,2-a]pyrazine-6-carboxamide] gave a pIC50 of 8.33. In turn, `COc1c(C(=O)Nc2cccc(C(F)F)n2)cn2cc(C34COC(C)(C3)C4)nc2c1C` [Example 290, N-(6-(difluoromethyl)pyridin-2-yl)-7-methoxy-8-methyl-2-(1-methyl-2-oxabicyclo[2.1.1]hexan-4-yl)imidazo[1,2-a]pyridine-6-carboxamide] showed a pIC50 of 7.56. Same read-out and setting: the result for `Cn1ccc(NC(=O)c2cn3cc(C45COC(C)(C4)C5)nc3cc2OC2CCCC2)n1` [Example 449, 7-(Cyclopentyloxy)-N-(1-methyl-1H-pyrazol-3-yl)-2-(1-methyl-2-oxabicyclo[2.1.1]hexan-4-yl)imidazo[1,2-a]pyridine-6-carboxamide] reads 8.82; that for `CC12CCC(c3cn4cc(C(=O)Nc5ccn(C(F)F)n5)c(OC5CCC5)cc4n3)(CO1)C2` (stereo not drawn) [Example 418, 7-Cyclobutoxy-N-(1-(difluoromethyl)-1H-pyrazol-3-yl)-2-(1-methyl-2-oxabicyclo[2.2.1]heptan-4-yl)imidazo[1,2-a]pyridine-6-carboxamide], 8.68.

The compound `CC(C)Oc1nc2nc(C34COC(C)(C3)C4)cn2cc1C(=O)Nc1cnn2cccc(F)c12` [Example 408, N-(4-fluoropyrazolo[1,5-a]pyridin-3-yl)-7-isopropoxy-2-(1-methyl-2-oxabicyclo[2.1.1]hexan-4-yl)imidazo[1,2-a]pyrimidine-6-carboxamide] showed a pIC50 of 9.15. In the case of `CC(C)Oc1nc2nc(C3C4COCC43)cn2cc1C(=O)Nc1ccn(C(F)F)n1` (stereo not drawn) [Example 395, 2-(3-Oxabicyclo[3.1.0]hexan-6-yl)-N-(1-(difluoromethyl)-1H-pyrazol-3-yl)-7-isopropoxyimidazo[1,2-a]pyrimidine-6-carboxamide], the pIC50 was 8.24. Compound `Cn1cccc(NC(=O)c2cn3cc(C45CCC(C)(CC4)OC5)nc3cc2OC2CCC2)c1=O` [Example 421, 7-Cyclobutoxy-N-(1-methyl-2-oxo-1,2-dihydropyridin-3-yl)-2-(1-methyl-2-oxabicyclo[2.2.2]octan-4-yl)imidazo[1,2-a]pyridine-6-carboxamide] showed a pIC50 of 9.70. Same read-out and setting: next, `COc1cccc(NC(=O)c2cn3cc(C(C)(F)F)nc3cc2OC(C)C)n1` [Example 101]: 7.76; `COCc1cc2nc(C34COC(C)(C3)C4)cn2cc1C(=O)Nc1cnn2cc(C)cnc12` [Example 288, 7-(Methoxymethyl)-2-(1-methyl-2-oxabicyclo[2.1.1]hexan-4-yl)-N-(6-methylpyrazolo[1,5-a]pyrimidin-3-yl)imidazo[1,2-a]pyridine-6-carboxamide]: 5.91; `CC(C)Oc1cc2nc(C3CC3)cn2cc1C(=O)Nc1cccc(OCC(F)F)n1` [Example 482, 2-Cyclopropyl-N-(6-(2,2-difluoroethoxy)pyridin-2-yl)-7-isopropoxyimidazo[1,2-a]pyridine-6-carboxamide]: 8.17. As for `CCOc1nc(C(=O)Nc2cccc(C(F)F)n2)cn2cc(C34CCC(C)(C3)OC4)nc12` (stereo not drawn) [Example 274, N-(6-(difluoromethyl)pyridin-2-yl)-8-ethoxy-2-(1-methyl-2-oxabicyclo[2.2.1]heptan-4-yl)imidazo[1,2-a]pyrazine-6-carboxamide], the pIC50 was 8.80. `CC(C)Oc1cc2nc([C@@]34CC[C@@H](C3)OC4)cn2cc1C(=O)Nc1cnn2cccnc12` (single isomer, unassigned) [Example 582] showed a pIC50 of 9.22. On the same count and under the same terms, next, `CC(C)Oc1nc(C(=O)Nc2cccn(C)c2=O)cn2cc(C34CCC(C)(C3)OC4)nc12` (stereo not drawn) [Example 341, 8-Isopropoxy-N-(1-methyl-2-oxo-1,2-dihydropyridin-3-yl)-2-(1-methyl-2-oxabicyclo[2.2.1]heptan-4-yl)imidazo[1,2-a]pyrazine-6-carboxamide]: 9.05; `Cn1ccc(NC(=O)c2cn3cc(C45COC(C)(C4)C5)nc3cc2OC2CCC2)n1` [Example 437, 7-Cyclobutoxy-N-(1-methyl-1H-pyrazol-3-yl)-2-(1-methyl-2-oxabicyclo[2.1.1]hexan-4-yl)imidazo[1,2-a]pyridine-6-carboxamide]: 8.77; `CCn1ccc(NC(=O)c2cn3cc(C45CCC(C)(C4)OC5)nc3cc2OC2CCC2)n1` (stereo not drawn) [Example 533, 7-Cyclobutoxy-N-(1-ethyl-1H-pyrazol-3-yl)-2-(1-methyl-2-oxabicyclo[2.2.1]heptan-4-yl)imidazo[1,2-a]pyridine-6-carboxamide]: 8.43.

For `Cc1cnc2c(NC(=O)c3cn4cc([C@@]56CC[C@@](C)(C5)OC6)nc4nc3OC(C)C)cnn2c1` (single isomer, unassigned) [Example 616], the pIC50 is 9.70.

`COc1cccc(NC(=O)c2cn3cc(C45COC(C)(C4)C5)nc3cc2OC2CCC2)n1` [Example 529, 7-Cyclobutoxy-N-(6-methoxypyridin-2-yl)-2-(1-methyl-2-oxabicyclo[2.1.1]hexan-4-yl)imidazo[1,2-a]pyridine-6-carboxamide] gave a pIC50 of 9.52. On the same count and under the same terms, the result for `CC12CCC(c3cn4cc(C(=O)Nc5cccc(C(F)F)n5)cc(OC(F)F)c4n3)(CO1)C2` (stereo not drawn) [Example 251] reads 7.82; that for `CCOc1nc2nc(C34COC(C)(C3)C4)cn2cc1C(=O)Nc1cccnc1OC` [Example 242], 8.89. In turn, `CCOc1nc(C(=O)Nc2cccc(C(F)(F)F)c2)cn2cc(C34COC(C)(C3)C4)nc12` [Example 497, 8-Ethoxy-2-(1-methyl-2-oxabicyclo[2.1.1]hexan-4-yl)-N-(3-(trifluoromethyl)phenyl)imidazo[1,2-a]pyrazine-6-carboxamide] showed a negative-log IC50 (pIC50) of 8.15. Still for that read-out and setting: the result for `CC(C)Oc1cc2nc([C@@]34CC[C@@H](C3)OC4)cn2cc1C(=O)Nc1ccn(C)n1` (single isomer, unassigned) [Example 580] reads 8.77. Still for that read-out and setting: next, `Cc1cnc2c(NC(=O)c3cn4cc(C56COC(C)(C5)C6)nc4cc3O[C@@H](C)C3CC3)cnn2c1` (single isomer, unassigned) [Example 658]: 9.22.

The same experiment, now with this note: IRAK4 Biochemical Assay (1 mM ATP, 2 h) IC50 (μM), 1 mM ATP, 2 h, 100 pM IRAK4.
A word on the IC50: it is the concentration that inhibits the measured activity by half. A low value points to greater potency. For `Cn1cccc(NC(=O)c2cn3cc(C4CC4)nc3c(OCCF)n2)c1=O` [Example 637, 2-Cyclopropyl-8-(2-fluoroethoxy)-N-(1-methyl-2-oxo-1,2-dihydropyridin-3-yl)imidazo[1,2-a]pyrazine-6-carboxamide trifluoroacetate], it took 0.0445 µM to reach half-maximal inhibition (IC50). Compound `COc1cc2nc(C34COC(CF)(C3)C4)cn2cc1C(=O)Nc1ccccn1` [Example 5] had an IC50 of 0.0721 µM. On to `CC(C)Oc1cc2nc(C34CCC(C)(C3)OC4)cn2cc1C(=O)Nc1cc(F)n(C)n1` (stereo not drawn) [Example 284, N-(5-fluoro-1-methyl-1H-pyrazol-3-yl)-7-isopropoxy-2-(1-methyl-2-oxabicyclo[2.2.1]heptan-4-yl)imidazo[1,2-a]pyridine-6-carboxamide trifluoroacetate], for which the IC50 was 0.0056 µM.

`CCOc1nc(C(=O)Nc2cccc3ccnn23)cn2cc(C34CCC(C)(C3)OC4)nc12` (stereo not drawn) [Example 278, 8-Ethoxy-2-(1-methyl-2-oxabicyclo[2.2.1]heptan-4-yl)-N-(pyrazolo[1,5-a]pyridin-7-yl)imidazo[1,2-a]pyrazine-6-carboxamide trifluoroacetate]: 0.0011 µM corresponded to half-maximal inhibition (IC50). `CC(C)Oc1nc2nc(C34COC(C)(C3)C4)cn2cc1C(=O)Nc1cnn2ccc(C(F)F)nc12` [Example 309, N-(5-(difluoromethyl)pyrazolo[1,5-a]pyrimidin-3-yl)-7-isopropoxy-2-(1-methyl-2 oxabicyclo[2.1.1]hexan-4-yl)imidazo[1,2-a]pyrimidine-6-carboxamide trifluoroacetate] had an IC50 of 0.0299 µM.

Source of the values: patent US20230087118A1, “IMIDAZO[1,2-a][sequence] DERIVATIVES AND THEIR USE IN THE TREATMENT OF DISEASE” (priority 2019, published 2023).
